For data set [1], the target named is T1, saccharase/isomaltase enzyme complex (SI complex) (Sus scrofa, UniProt P56729).
T1 construct: are isolated from a pig intestine by the method of H. Heymann; from tissue; host or cells: pig intestine (mucosa of the small intestine)
Put plainly: Stability with respect to intestinal α-glucosidases: saccharase/isomaltase. Type of data set: in vitro ADME, pig. The conditions noted are these: 1% solution, pH 7.0, 0.7 U enzyme complex, 37° C., incubation time 120 min. From the text: (§1) The enzyme complexes saccharase/isomaltase and glucoamylase/maltase that are present on the mucosa in the small intestine in vivo serve to break down disaccharides like maltose and sucrose that reach the small intestine and also to break down maltooligosaccharides to monosaccharides to some degree, and as such these components are absorbed into the blood circulation via the intestinal wall. The enzyme complexes saccharase/isomaltase (SI complex) and glucoamylase/maltase (GM complex) are isolated from a pig intestine by the method of H. […] (solution 2 to solution 6), mixed and incubated at 37° C. The reaction is stopped after 2 h by heating to 95° C. for 15 min. The monosaccharides that have formed and the undegraded saccharides in the relative batches are quantitatively determined by HPAEC.

In data set [2] the test system is glucoamylase/maltase enzyme complex (GM complex). Kind of data set: Stability with respect to intestinal α-glucosidases: glucoamylase/maltase. Format: in vitro ADME, pig. The conditions noted are these: 1% solution, pH 7.0, 0.7 U enzyme complex, 37° C., incubation time 120 min.
Source text: as §1

The nature of data set [3]: Stability in stomach: hydrolysis rate at pH 2.0, 37° C. Format: physicochemical. The conditions noted are these: 1% solution, 10 mM hydrochloric acid (pH 2.0). How it is done: The stability of a substance in the gastric passage can be simulated by determining the hydrolysis rate at pH 2.0. Sucrose and 1-kestose are used as controls. […] Samples are taken from the reaction batch after […], 120 and 180 min and are analyzed by basic anion exchange chromatography, HPAEC.

T1 sequence (P56729 with tags, fused parts or gaps): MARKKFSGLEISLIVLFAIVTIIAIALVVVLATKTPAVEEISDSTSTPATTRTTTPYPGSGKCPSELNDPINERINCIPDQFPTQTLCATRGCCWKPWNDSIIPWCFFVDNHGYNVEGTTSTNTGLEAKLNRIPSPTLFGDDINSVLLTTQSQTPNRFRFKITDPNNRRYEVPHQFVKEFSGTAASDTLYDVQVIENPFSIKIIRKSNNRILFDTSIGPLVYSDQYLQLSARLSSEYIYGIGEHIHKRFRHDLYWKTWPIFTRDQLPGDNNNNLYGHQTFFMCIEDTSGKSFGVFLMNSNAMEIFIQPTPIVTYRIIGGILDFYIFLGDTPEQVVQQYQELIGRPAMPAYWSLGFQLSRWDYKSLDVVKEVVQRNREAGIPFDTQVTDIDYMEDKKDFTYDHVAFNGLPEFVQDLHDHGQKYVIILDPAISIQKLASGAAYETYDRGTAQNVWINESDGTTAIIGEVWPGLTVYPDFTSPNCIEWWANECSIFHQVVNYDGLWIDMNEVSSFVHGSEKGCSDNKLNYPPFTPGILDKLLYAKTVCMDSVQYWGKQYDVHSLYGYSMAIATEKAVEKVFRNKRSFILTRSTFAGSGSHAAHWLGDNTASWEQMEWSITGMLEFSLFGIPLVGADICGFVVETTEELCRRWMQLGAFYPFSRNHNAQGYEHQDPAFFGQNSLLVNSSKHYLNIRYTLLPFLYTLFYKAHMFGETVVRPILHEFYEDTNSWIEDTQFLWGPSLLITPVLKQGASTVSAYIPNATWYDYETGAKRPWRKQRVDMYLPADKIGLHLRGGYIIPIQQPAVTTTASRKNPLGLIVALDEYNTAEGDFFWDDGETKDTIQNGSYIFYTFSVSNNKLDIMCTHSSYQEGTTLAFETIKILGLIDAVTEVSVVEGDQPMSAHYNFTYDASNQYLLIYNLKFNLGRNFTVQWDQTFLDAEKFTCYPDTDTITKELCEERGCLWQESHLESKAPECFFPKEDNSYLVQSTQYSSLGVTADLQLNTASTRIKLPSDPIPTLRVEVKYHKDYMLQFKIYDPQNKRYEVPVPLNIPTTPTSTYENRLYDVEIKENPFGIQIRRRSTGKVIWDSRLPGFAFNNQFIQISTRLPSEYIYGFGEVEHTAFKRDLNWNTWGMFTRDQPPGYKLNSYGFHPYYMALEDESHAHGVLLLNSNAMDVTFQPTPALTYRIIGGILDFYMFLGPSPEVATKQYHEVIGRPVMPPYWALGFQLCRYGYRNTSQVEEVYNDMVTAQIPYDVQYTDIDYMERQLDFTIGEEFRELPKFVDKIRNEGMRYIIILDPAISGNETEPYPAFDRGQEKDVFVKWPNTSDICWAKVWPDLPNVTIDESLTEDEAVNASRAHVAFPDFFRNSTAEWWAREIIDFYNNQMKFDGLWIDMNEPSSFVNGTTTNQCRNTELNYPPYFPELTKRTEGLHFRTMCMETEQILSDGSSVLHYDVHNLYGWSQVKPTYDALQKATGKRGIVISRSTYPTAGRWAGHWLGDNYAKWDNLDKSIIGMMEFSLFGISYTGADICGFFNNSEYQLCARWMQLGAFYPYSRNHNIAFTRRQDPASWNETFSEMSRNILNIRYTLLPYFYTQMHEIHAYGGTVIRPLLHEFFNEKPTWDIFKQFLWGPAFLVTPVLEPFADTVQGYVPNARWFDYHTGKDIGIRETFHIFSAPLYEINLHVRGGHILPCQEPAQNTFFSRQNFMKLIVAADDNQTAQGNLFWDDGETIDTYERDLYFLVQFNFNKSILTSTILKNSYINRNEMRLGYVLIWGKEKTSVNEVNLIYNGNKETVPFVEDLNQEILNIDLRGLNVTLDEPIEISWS

In the case of `OC[C@H]1O[C@H](O[C@H]2[C@H](O)[C@@H](O)C(O)O[C@@H]2CO)[C@H](O)[C@@H](O)[C@@H]1O` (mixture of isomers) [Maltose], in data set [1], the “Hydrolysis rate (%), incubation with Saccharase/Isomaltase” value came to 95%. For the same molecule, the “Hydrolysis rate (%), incubation with Glucoamylase/Maltase” value in data set [2] was found to be 96%.
With `OC[C@H]1O[C@@](CO)(OC[C@@]2(O[C@H]3O[C@H](CO)[C@@H](O)[C@H](O)[C@H]3O)O[C@H](CO)[C@@H](O)[C@@H]2O)[C@@H](O)[C@@H]1O` [Example 1-Kestose, 1-Kestose], the “Hydrolysis rate (%)” value in data set [3] (incubation time 0 min) was found to be 0%; in data set [3] (incubation time 60 min), 11%; in data set [3] (incubation time 120 min), 25%; in data set [3] (incubation time 180 min) it was 36%.
For `OC[C@H]1O[C@@](CO)(O[C@H]2O[C@H](CO)[C@@H](O)[C@H](O)[C@H]2O)[C@@H](O)[C@@H]1O` [Sucrose], the “Hydrolysis rate (%)” value in data set [3] (incubation time 0 min) is listed as 0%; in data set [3] (incubation time 60 min), 2%; in data set [3] (incubation time 120 min), 5%; in data set [3] (incubation time 180 min), 8%. For the same molecule, in data set [1], the “Hydrolysis rate (%), incubation with Saccharase/Isomaltase” value came out at 98%.

For the origin of these results see patent US20050238777A1, “Condensed palatinose and method for producing the same” (priority 2002, published 2005).
